Results: ChEMBL document CHEMBL5370649, “Novel Coumarin Derivatives Inhibit the Quorum Sensing System and Iron Homeostasis as Antibacterial Synergists against Pseudomonas aeruginosa” (J Med Chem, 2023)
Calls of active or inactive are those of the source. No cut-off for these calls is given here.

How the values were obtained:
[1] = Toxicity in Balb/c mouse wound infection model infected with Pseudomonas aeruginosa PAO1 assessed as body weight change at 50 uM,TOP for 3 days in Ciprofloxacin; conditions: in vivo, topical_or_ocular, 72 h, time 3 day
Pseudomonas aeruginosa [2] = assay: Inhibition of iron homeostasis in Pseudomonas aeruginosa PAO1 in ABTGC medium assessed as decrease in iron level at 1.25 to 20 uM in presence of FeCl3 by fluorescence based microplate reader analysis (Rvb= 9.6+/-2.00 microM); type: functional; conditions: dose 1.25-20 µM
Pseudomonas aeruginosa [3] = assay: Downregulation of pilD expression in Pseudomonas aeruginosa PAO1 at 20 uM incubated for 24 hrs by RNA sequencing analysis; type: functional
[4] = Inhibition of quorum sensing system in Pseudomonas aeruginosa PAO1-lasB-gfp assessed as inhibition of GFP fluorescence expression at 1.25 to 20 uM and measured for 12 hrs at 15 mins interval by fluorescence assay; conditions: dose 1.25-20 µM
Pseudomonas aeruginosa [5] = assay: Antibiofilm activity against in Pseudomonas aeruginosa PAO1 assessed as pilus formation at 5 to 40 uM incubated for 16 hrs by SEM analysis; type: functional, organism-based; conditions: dose 5-40 µM
Pseudomonas aeruginosa [6] = assay: Upregulation of pvdF expression in Pseudomonas aeruginosa PAO1 at 20 uM incubated for 24 hrs by RNA sequencing analysis; type: functional
Pseudomonas aeruginosa [7] = assay: Downregulation of pilI expression in Pseudomonas aeruginosa PAO1 at 20 uM incubated for 24 hrs by RNA sequencing analysis; type: functional
[8] = Toxicity in Balb/c mouse wound infection model infected with Pseudomonas aeruginosa PAO1 assessed as morphological changes in heart at 50 uM,TOP for 3 days in Ciprofloxacin by H and E staining based analysis; type: tissue-based; conditions: in vivo, topical_or_ocular, 72 h, time 3 day
Pseudomonas aeruginosa [9] = assay: Downregulation of pilB expression in Pseudomonas aeruginosa PAO1 at 20 uM incubated for 24 hrs by RNA sequencing analysis; type: functional
Pseudomonas aeruginosa [10] = assay: Upregulation of fpvA expression in Pseudomonas aeruginosa PAO1 at 20 uM incubated for 24 hrs by RNA sequencing analysis; type: functional
Pseudomonas aeruginosa [11] = assay: Synergistic antibacterial activity against Pseudomonas aeruginosa PAO1 infected in Balb/c mouse wound infection model assessed as reduction in bacterial survival rate at wounded area at 50 uM,TOP QD for 3 days in presence of Tobramycin by CFU assay; type: functional; conditions: time 3 day
Pseudomonas aeruginosa [12] = assay: Synergistic antibacterial activity against Pseudomonas aeruginosa PAO1 infected in Balb/c mouse wound infection model assessed as reduction in bacterial infection at 50 uM,TOP QD for 3 days in presence of Ciprofloxacin by CFU assay; type: functional; parameters: scale not given: the % may be the effect or the level left; conditions: time 3 day
Pseudomonas aeruginosa [13] = assay: Synergistic antibacterial activity against Pseudomonas aeruginosa PAO1 infected in Balb/c mouse wound infection model assessed as healing degree of wound at 50 uM,TOP QD for 3 days and measured after 9 days in presence of Tobramycin; type: functional, organism-based; conditions: time 3.0 day
[14] = Toxicity in Balb/c mouse wound infection model infected with Pseudomonas aeruginosa PAO1 assessed as morphological changes in lung at 50 uM,TOP for 3 days in Ciprofloxacin by H and E staining based analysis; type: tissue-based; conditions: in vivo, topical_or_ocular, 72 h, time 3 day
Pseudomonas aeruginosa [15] = assay: Antibacterial activity against Pseudomonas aeruginosa PAO1 in ABTGC medium assessed as bacterial growth inhibition at 1.25 to 20 uM incubated for 16 hrs; type: functional, organism-based; conditions: dose 1.25-20 µM
[16] = Toxicity in Balb/c mouse wound infection model infected with Pseudomonas aeruginosa PAO1 assessed as body weight change at 50 uM,TOP for 3 days in Tobramycin; conditions: in vivo, topical_or_ocular, 72 h, time 3 day
Pseudomonas aeruginosa [17] = assay: Downregulation of filA expression in Pseudomonas aeruginosa PAO1 at 20 uM incubated for 24 hrs by RNA sequencing analysis; type: functional
[18] = target: T1, Transcriptional activator protein LasR (Pseudomonas aeruginosa (strain ATCC 15692 / PAO1 / 1C / PRS 101 / LMG12228)) (UniProt P25084); assay: Inhibition of LasR-mediated quorum sensing system in Pseudomonas aeruginosa PAO1 assessed as inhibition of elastase production at 1.25 to 20 uM incubated for 24 hrs using BODIPY-FL-labeled DQ elastin conjugate as substrate by fluorometric method; conditions: dose 1.25-20 µM
T1 sequence (whole entry): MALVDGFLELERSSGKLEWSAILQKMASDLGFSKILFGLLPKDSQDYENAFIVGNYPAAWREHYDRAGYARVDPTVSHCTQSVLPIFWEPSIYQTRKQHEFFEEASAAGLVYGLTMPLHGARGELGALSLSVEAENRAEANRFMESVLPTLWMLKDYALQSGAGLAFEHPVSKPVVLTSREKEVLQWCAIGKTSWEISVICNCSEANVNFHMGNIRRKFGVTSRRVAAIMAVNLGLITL

[19] = Toxicity in Balb/c mouse wound infection model infected with Pseudomonas aeruginosa PAO1 assessed as morphological changes in liver at 50 uM,TOP for 3 days in Tobramycin by H and E staining based analysis; type: tissue-based; conditions: in vivo, topical_or_ocular, 72 h, time 3 day
A549 = assay: Cytotoxicity against human A549 cells assessed as reduction in cell viability upto 50 uM incubated for 24 hrs by MTT assay; type: toxicity, cell-based; conditions: a549, 24 h
Pseudomonas aeruginosa [20] = assay: Upregulation of pvdJ expression in Pseudomonas aeruginosa PAO1 at 20 uM incubated for 24 hrs by RNA sequencing analysis; type: functional
Pseudomonas aeruginosa [21] = assay: Antibiofilm activity against Pseudomonas aeruginosa PAO1 fpvA-overexpressing mutant assessed as inhibition of biofilm formation at 1.25 to 20 uM incubated for 24 hrs by crystal violet staining based absorbance assay; type: functional, organism-based; conditions: dose 1.25-20 µM
Pseudomonas aeruginosa [22] = assay: Downregulation of rhlA expression in Pseudomonas aeruginosa PAO1 at 20 uM incubated for 24 hrs by RNA sequencing analysis; type: functional
Pseudomonas aeruginosa [23] = assay: Downregulation of trpG expression in Pseudomonas aeruginosa PAO1 at 20 uM incubated for 24 hrs by RNA sequencing analysis; type: functional
Pseudomonas aeruginosa [24] = assay: Antibiofilm activity against Pseudomonas aeruginosa PAO1 pvds-defective mutant assessed as inhibition of biofilm formation at 1.25 to 20 uM incubated for 24 hrs by crystal violet staining based absorbance assay; type: functional, organism-based; conditions: dose 1.25-20 µM
[25] = Inhibition of quorum sensing system in Pseudomonas aeruginosa PAO1-pqsA-gfp assessed as inhibition of GFP fluorescence expression at 1.25 to 20 uM and measured for 12 hrs at 15 mins interval by fluorescence assay; conditions: dose 1.25-20 µM
[26] = Toxicity in Balb/c mouse wound infection model infected with Pseudomonas aeruginosa PAO1 assessed as morphological changes in lung at 50 uM,TOP for 3 days in Tobramycin by H and E staining based analysis; type: tissue-based; conditions: in vivo, topical_or_ocular, 72 h, time 3 day
Pseudomonas aeruginosa [27] = assay: Antibiofilm activity against Pseudomonas aeruginosa PAO1 assessed as inhibition of biofilm formation at 0.5 to 10 uM incubated for 24 hrs by SYTO9 and PI staining based 3D fluorescence confocal microscopy imaging analysis; type: functional, organism-based; conditions: dose 0.5-10 µM

Cc1ccc2oc(=O)cc(OCCCCCCC(=O)NO)c2c1
Activity [1]: Non-Toxic
Activity (Pseudomonas aeruginosa [2]): 6.96 µM
Activity (Pseudomonas aeruginosa [3]): Active
inhibition [4]: Dose-Dependent Effect
Activity (Pseudomonas aeruginosa [5]): Dose-Dependent Effect
Activity (Pseudomonas aeruginosa [6]): Active
Activity (Pseudomonas aeruginosa [7]): Active
Activity [8]: Non-Toxic
Activity (Pseudomonas aeruginosa [9]): Active
Activity (Pseudomonas aeruginosa [10]): Active
Activity (Pseudomonas aeruginosa [11]): 1.78%
Activity (Pseudomonas aeruginosa [12]): 100%
Activity (Pseudomonas aeruginosa [13]): Active
Activity [14]: Non-Toxic
Activity (Pseudomonas aeruginosa [15]): inactive
Activity [16]: Non-Toxic
Activity (Pseudomonas aeruginosa [17]): Active
inhibition [18]: Dose-Dependent Effect
Activity [19]: Non-Toxic
Activity (A549): Non-Toxic
Activity (Pseudomonas aeruginosa [20]): Active
inhibition (Pseudomonas aeruginosa [21]): inactive
Activity (Pseudomonas aeruginosa [22]): Active
Activity (Pseudomonas aeruginosa [23]): Active
inhibition (Pseudomonas aeruginosa [24]): inactive
inhibition [25]: Dose-Dependent Effect
Activity [26]: Non-Toxic
inhibition (Pseudomonas aeruginosa [27]): Active
